Experimental data taken from ChEMBL document CHEMBL1156513, “Pharmacologic inhibition of tpl2 blocks inflammatory responses in primary human monocytes, synoviocytes, and blood” (J Biol Chem, 2007).
The source made the active and inactive calls. The rule behind the calls is not given here.

How the values were obtained:
[1] = (§1) Inhibition of LPS-induced MEK phosphorylation in primary human monocytes by immunoblot analysis; type: cell-based
[2] = molecular target: Mitogen-activated protein kinase kinase kinase 8 (Homo sapiens, UniProt P41279); experiment: Inhibition of human Tpl2 by ELISA
[3] = (§2) Inhibition of LPS-induced ERK phosphorylation in primary human monocytes by immunoblot analysis; type: cell-based
Homo sapiens [4] = species: Homo sapiens; experiment: as §1; type: cell-based
Homo sapiens [5] = species: Homo sapiens; experiment: as §2; type: cell-based
[6] = Inhibition of TNF-alpha-stimulated PGE2 production in human RA-FLS cells by immunoblot analysis; type: functional, cell-based
Homo sapiens [7] = species: Homo sapiens; experiment: Effect on ERK activation in LPS-induced tpl2-/- mouse peritoneal macrophages
RA-FLS [8] = experiment: Inhibition of IL-1-beta-stimulated PGE2 production in human RA-FLS cells after 4 hrs by ELISA; type: functional, cell-based
[9] = Inhibition of IL-1-beta-stimulated MMP1 in human RA-FLS cells by immunoblot analysis; type: functional, cell-based
HeLa [10] = experiment: Inhibition of IL8 production in human Tpl2 expressing HeLa cells after 17 hrs by ELISA; type: functional, cell-based
[11] = molecular target: Proto-oncogene tyrosine-protein kinase Src (Homo sapiens, UniProt P12931); experiment: Inhibition of human Src by ELISA
Homo sapiens [12] = species: Homo sapiens; experiment: Inhibition of PMA-induced ERK phosphorylation in primary human monocytes by immunoblot analysis; type: cell-based
[13] = Inhibition of IL-1-beta-stimulated IL6 production in human RA-FLS cells by immunoblot analysis; type: functional, cell-based
[14] = Cytotoxicity against human RA-FLS cells at =< 10 uM; type: cell-based
HeLa [15] = experiment: Cytotoxicity against human HeLa cells; type: functional, cell-based
RA-FLS [16] = experiment: Inhibition of IL-1-beta-stimulated COX2 expression in human RA-FLS cells after 4 hrs by immunoblot analysis; type: functional, cell-based
HEK293 [17] = experiment: Inhibition of IL-1-beta-induced NF-kappaB activation in HEK293 cells upto 10 uM by luciferase assay; type: cell-based; settings: Homo sapiens
Monocyte [18] = experiment: (§3) Inhibition of IL-1-beta-induced IL12p40 production in primary human monocytes at 5 uM; type: functional
Stromelysin-1 = Stromelysin-1 (Homo sapiens, UniProt P08254); experiment: Inhibition of IL-1-beta-stimulated MMP3 in human RA-FLS cells by immunoblot analysis; type: cell-based
[19] = Inhibition of human CaMK2 by ELISA
HeLa [20] = experiment: Inhibition of human ERK phosphorylation in Tpl2 transfected HeLa cells; type: cell-based
[21] = Inhibition of human S6K by scintiplate assay
[22] = molecular target: T1, Inhibitor of nuclear factor kappa-B kinase subunit beta (Homo sapiens, UniProt O14920); experiment: Inhibition of human IKK-beta by ELISA
T1 sequence (O14920 whole entry): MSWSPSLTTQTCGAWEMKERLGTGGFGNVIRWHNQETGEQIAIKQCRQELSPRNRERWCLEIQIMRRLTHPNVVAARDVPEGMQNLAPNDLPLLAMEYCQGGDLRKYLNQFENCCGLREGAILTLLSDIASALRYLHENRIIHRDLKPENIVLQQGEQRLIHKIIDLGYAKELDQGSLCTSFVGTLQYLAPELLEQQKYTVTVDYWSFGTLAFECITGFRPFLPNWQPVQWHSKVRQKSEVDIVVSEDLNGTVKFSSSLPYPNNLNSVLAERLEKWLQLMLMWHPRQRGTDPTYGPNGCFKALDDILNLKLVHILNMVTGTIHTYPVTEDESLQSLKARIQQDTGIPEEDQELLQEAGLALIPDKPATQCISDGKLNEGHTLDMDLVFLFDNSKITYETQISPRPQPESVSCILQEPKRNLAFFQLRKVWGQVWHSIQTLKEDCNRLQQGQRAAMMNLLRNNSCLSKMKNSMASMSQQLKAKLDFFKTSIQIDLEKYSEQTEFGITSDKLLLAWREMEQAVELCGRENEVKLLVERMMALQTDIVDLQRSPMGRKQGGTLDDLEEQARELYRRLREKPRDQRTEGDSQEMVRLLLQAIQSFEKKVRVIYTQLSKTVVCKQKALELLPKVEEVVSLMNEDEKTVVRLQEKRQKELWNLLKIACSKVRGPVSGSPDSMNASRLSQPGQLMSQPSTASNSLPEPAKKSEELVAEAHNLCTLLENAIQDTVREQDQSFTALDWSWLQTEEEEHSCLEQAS

[23] = Inhibition of IL-1-beta-stimulated IL8 production in human RA-FLS cells by immunoblot analysis; type: functional, cell-based
Mus musculus = species: Mus musculus; experiment: Effect on IL-1-beta-induced ERK phosphorylation in 129S5 mouse thioglycollate elicited peritoneal macrophages
[24] = molecular target: Mitogen-activated protein kinase 14 (Homo sapiens, UniProt Q16539); experiment: Inhibition of human p38alpha by ELISA
Blood [25] = experiment: Inhibition of IL-1-beta-induced TNFalpha production in human blood; type: functional, tissue-based
[26] = Inhibition of IL-1-beta-induced MEK phosphorylation in primary human monocytes by immunoblot analysis; type: cell-based
[27] = Inhibition of IL-1-beta-stimulated PGE2 production in human RA-FLS cells by immunoblot analysis; type: functional, cell-based
Monocyte [28] = experiment: as §3; type: functional, cell-based
HeLa [29] = experiment: Inhibition of human MEK phosphorylation in Tpl2 transfected HeLa cells; type: cell-based
[30] = molecular target: T2, Dual specificity mitogen-activated protein kinase kinase 6 (Homo sapiens, UniProt P52564); experiment: Inhibition of human MKK6 by ELISA
T2 sequence (P52564 whole entry): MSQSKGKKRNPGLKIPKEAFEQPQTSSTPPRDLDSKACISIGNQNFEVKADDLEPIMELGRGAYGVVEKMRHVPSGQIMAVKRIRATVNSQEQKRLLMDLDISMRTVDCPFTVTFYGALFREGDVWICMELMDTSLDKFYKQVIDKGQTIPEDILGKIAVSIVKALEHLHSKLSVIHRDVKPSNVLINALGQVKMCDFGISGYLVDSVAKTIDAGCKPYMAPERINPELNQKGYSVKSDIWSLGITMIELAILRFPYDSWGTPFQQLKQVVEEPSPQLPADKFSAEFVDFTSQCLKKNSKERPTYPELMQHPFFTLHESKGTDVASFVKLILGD

Monocyte [31] = experiment: Inhibition of LPS-induced TNFalpha production in primary human monocytes; type: functional, cell-based
Blood [32] = experiment: Inhibition of LPS-induced TNFalpha production in human blood; type: functional, tissue-based
[33] = Inhibition of human JNK1alpha by scintiplate assay
Monocyte [34] = experiment: (§4) Inhibition of LPS-induced IL12p40 production in primary human monocytes; type: functional
[35] = molecular target: T3, MAP kinase-activated protein kinase 2 (Homo sapiens, UniProt P49137); experiment: Inhibition of LPS-induced MK2 phosphorylation in primary human monocytes upto 5 uM by immunoblot analysis; type: cell-based
Target sequence in this assay (P49137 whole entry, looked up): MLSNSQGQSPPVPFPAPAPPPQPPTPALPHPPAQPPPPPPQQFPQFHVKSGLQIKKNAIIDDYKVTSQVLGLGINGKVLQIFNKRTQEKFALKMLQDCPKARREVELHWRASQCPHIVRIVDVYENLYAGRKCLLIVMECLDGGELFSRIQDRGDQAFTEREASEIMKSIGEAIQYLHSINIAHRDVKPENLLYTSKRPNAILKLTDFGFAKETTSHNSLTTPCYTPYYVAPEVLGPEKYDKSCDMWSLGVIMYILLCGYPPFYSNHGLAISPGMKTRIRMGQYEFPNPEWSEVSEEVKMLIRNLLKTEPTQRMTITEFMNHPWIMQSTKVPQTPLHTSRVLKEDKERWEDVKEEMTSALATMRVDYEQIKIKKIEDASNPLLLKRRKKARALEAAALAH

[36] = Cytotoxicity against primary human monocytes at 5 uM; type: cell-based; settings: monocyte
Monocyte [37] = experiment: Inhibition of IL-1-beta-induced TNFalpha production in primary human monocytes; type: functional, cell-based
[38] = Inhibition of human PKA by scintiplate assay
[39] = molecular target: Dual specificity mitogen-activated protein kinase kinase 1 (Oryctolagus cuniculus, UniProt P29678); experiment: Inhibition of rabbit MEK1 by ELISA
[40] = Inhibition of IL-1-beta-induced ERK phosphorylation in primary human monocytes by immunoblot analysis; type: cell-based
HeLa [41] = experiment: Inhibition of TNF-alpha-induced IL8 production in human HeLa cells after 4 hrs; type: functional, cell-based
Monocyte [42] = experiment: as §4; type: functional, cell-based
[43] = molecular target: T3, MAP kinase-activated protein kinase 2; experiment: Inhibition of human MK2 by scintiplate assay
Target sequence in this assay (P49137 whole entry): as the sequence (P49137 whole entry, looked up) above

HEK293 [44] = experiment: Inhibition of TNF-induced NF-kappaB activation in HEK293 cells upto 10 uM by luciferase assay; type: cell-based; settings: Homo sapiens
Homo sapiens [45] = species: Homo sapiens; experiment: Inhibition of LPS-induced c-Jun phosphorylation in primary human monocytes upto 5 uM by immunoblot analysis; type: cell-based
[46] = Inhibition of IL-1-beta-stimulated ERK phosphorylation in shuman RA-FLS cells by immunoblot analysis; type: cell-based; settings: Homo sapiens
[47] = molecular target: MAP kinase p38 (Homo sapiens) (UniProt O15264+Q15759+Q16539+P53778); experiment: Inhibition of LPS-induced p38 phosphorylation in primary human monocytes upto 5 uM by immunoblot analysis; type: cell-based
HeLa [48] = experiment: Inhibition of TNF-alpha-induced ERK phosphorylation in human HeLa cells by immunoblot analysis; type: functional, cell-based
[49] = molecular target: T4, NF-kappa-B inhibitor alpha (Homo sapiens) (UniProt P25963); experiment: Inhibition of LPS-induced IkappaBalpha phosphorylation in primary human monocytes upto 5 uM by immunoblot analysis; type: cell-based
T4 sequence (whole entry): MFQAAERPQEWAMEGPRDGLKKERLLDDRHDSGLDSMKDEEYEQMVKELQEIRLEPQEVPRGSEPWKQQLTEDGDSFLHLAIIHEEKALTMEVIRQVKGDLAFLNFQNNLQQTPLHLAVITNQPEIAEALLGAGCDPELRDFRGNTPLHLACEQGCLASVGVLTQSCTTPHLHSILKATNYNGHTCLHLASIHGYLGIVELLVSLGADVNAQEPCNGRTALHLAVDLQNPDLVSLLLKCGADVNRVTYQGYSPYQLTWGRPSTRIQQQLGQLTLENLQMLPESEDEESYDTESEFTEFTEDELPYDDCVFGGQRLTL

Homo sapiens [50] = species: Homo sapiens; experiment: Inhibition of PMA-induced MEK phosphorylation in primary human monocytes by immunoblot analysis; type: cell-based
[51] = molecular target: RAF proto-oncogene serine/threonine-protein kinase (Homo sapiens, UniProt P04049); experiment: Inhibition of human Raf1
[52] = molecular target: Protein kinase C alpha type (Homo sapiens, UniProt P17252); experiment: Inhibition of human PKCalpha by scintiplate assay

Mitogen-activated protein kinase kinase kinase 8, sequence (P41279 whole entry): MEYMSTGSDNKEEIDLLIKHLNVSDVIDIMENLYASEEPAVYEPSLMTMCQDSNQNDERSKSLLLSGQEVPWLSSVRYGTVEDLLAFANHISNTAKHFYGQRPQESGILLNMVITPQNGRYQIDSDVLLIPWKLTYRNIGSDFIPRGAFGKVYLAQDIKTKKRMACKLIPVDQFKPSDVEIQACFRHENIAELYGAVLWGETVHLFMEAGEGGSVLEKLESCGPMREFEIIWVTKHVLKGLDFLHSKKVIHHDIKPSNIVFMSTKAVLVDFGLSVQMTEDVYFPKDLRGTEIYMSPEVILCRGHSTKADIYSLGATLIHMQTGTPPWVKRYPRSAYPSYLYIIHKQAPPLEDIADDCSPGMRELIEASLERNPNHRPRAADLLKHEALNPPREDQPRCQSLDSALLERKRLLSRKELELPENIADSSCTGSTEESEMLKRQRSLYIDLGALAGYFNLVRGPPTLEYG
RAF proto-oncogene serine/threonine-protein kinase, sequence (P04049 whole entry): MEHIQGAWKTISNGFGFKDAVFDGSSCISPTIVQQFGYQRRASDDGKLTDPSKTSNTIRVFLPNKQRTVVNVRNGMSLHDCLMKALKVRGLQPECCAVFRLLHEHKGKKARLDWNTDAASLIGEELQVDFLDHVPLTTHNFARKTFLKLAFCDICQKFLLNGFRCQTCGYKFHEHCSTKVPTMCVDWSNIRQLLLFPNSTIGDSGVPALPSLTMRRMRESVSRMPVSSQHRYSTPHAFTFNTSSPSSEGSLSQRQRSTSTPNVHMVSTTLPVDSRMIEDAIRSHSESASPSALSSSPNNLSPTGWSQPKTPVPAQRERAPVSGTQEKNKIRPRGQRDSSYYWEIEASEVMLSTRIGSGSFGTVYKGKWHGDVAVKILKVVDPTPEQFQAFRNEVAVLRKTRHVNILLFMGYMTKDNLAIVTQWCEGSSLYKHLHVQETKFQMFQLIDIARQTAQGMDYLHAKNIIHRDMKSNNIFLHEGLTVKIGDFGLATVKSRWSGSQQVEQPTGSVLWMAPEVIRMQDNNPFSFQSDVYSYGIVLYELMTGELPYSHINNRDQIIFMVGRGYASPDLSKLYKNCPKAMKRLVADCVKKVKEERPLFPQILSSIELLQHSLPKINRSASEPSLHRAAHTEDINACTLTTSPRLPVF
Proto-oncogene tyrosine-protein kinase Src, sequence (P12931 2-536 limits assumed): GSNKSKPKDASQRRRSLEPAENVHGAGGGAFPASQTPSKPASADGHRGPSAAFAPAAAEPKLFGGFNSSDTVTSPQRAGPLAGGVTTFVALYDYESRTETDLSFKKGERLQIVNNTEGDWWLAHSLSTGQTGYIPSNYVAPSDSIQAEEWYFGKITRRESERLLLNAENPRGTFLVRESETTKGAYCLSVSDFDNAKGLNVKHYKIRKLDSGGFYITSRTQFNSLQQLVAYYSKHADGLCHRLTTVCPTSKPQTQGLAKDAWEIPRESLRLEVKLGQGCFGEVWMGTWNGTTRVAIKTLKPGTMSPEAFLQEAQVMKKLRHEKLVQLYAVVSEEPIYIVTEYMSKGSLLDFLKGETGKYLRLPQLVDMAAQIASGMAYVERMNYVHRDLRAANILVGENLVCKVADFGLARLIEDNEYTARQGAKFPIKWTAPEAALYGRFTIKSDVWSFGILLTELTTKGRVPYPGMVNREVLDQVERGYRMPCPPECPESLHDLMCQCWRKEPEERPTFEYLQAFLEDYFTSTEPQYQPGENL
Stromelysin-1, sequence (P08254 whole entry): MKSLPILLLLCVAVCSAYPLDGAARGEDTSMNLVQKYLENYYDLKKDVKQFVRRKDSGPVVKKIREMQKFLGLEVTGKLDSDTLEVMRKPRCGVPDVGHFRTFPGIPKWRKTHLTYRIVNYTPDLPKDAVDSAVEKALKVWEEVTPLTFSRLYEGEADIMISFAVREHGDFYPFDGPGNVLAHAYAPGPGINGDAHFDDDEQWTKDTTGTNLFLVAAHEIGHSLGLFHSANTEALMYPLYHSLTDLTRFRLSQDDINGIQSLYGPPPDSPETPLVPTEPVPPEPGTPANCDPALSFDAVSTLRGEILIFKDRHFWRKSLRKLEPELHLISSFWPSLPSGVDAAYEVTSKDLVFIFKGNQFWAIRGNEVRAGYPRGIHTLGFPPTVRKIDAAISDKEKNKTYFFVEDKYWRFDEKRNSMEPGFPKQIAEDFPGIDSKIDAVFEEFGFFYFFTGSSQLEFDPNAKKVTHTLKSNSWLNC
Mitogen-activated protein kinase 14, sequence (Q16539 whole entry): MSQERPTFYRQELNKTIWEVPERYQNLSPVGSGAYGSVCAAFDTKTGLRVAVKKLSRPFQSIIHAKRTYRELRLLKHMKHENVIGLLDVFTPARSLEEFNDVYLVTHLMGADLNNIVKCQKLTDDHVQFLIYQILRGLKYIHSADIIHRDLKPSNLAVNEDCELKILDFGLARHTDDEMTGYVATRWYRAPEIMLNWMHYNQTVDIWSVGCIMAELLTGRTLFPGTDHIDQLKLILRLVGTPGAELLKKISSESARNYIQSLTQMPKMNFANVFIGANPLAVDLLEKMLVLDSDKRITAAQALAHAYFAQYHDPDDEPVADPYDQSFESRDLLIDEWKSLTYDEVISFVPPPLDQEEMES
Dual specificity mitogen-activated protein kinase kinase 1, sequence (P29678 whole entry): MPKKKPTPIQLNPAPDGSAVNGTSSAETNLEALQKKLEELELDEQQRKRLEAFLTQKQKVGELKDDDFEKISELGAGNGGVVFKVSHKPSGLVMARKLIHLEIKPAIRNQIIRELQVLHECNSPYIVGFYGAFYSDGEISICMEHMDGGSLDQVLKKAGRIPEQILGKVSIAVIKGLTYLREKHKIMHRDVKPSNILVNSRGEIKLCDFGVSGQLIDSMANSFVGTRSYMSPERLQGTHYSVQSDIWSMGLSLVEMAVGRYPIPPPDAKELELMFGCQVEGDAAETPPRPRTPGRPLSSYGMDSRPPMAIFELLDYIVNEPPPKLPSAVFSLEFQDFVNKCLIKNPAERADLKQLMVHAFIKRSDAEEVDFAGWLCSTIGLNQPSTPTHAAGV

C[C@@H](Nc1cc2c(Nc3ccc(F)c(Cl)c3)c(C#N)cnc2cn1)c1ccccc1
IC50 [1]: ≤ 1 µM
IC50 [2]: 0.016 µM
IC50 [3]: ≤ 1 µM

C[C@H](Nc1cc2c(Nc3ccc(F)c(Cl)c3)c(C#N)cnc2cn1)c1ccccc1
Activity (Homo sapiens [4]): inactive
Activity (Homo sapiens [5]): inactive

N#Cc1cnc2c(Cl)cc(NCc3cnc[nH]3)cc2c1Nc1ccc(F)c(Cl)c1
IC50 [6]: 0.7 µM
Activity (Homo sapiens [7]): inactive
Activity (RA-FLS [8]): Active
IC50 [9]: 4 µM
IC50 (HeLa [10]): 1 µM
IC50 [11]: > 100 µM
Activity (Homo sapiens [12]): inactive
IC50 [13]: 6.9 µM
Activity [14]: Non-toxic
Activity (HeLa [15]): inactive
Activity (RA-FLS [16]): Active
Activity (HEK293 [17]): inactive
inhibition at 5 µM (Monocyte [18]): 30%
IC50 (Stromelysin-1): 2.3 µM
IC50 [19]: 23 µM
Activity (HeLa [20]): Active
IC50 [21]: > 100 µM
IC50 [22]: 73 µM
IC50 [23]: 7.9 µM
Activity (Mus musculus): Dose-dependent effect
IC50 [24]: > 100 µM
IC50 (Blood [25]): 7.2 µM
IC50 [26]: 0.5 µM
IC50 [27]: 0.4 µM
IC50 (Monocyte [28]): > 5 µM
Activity (HeLa [29]): Active
IC50 [30]: > 100 µM
IC50 (Monocyte [31]): 0.6 µM
IC50 [1]: 0.5 µM
IC50 (Blood [32]): 5.4 µM
IC50 [33]: 65 µM
inhibition (INH) (Monocyte [34]): 39%
Activity [35]: inactive
Activity [36]: Non-toxic
IC50 (Monocyte [37]): 0.7 µM
IC50 [38]: > 100 µM
IC50 [39]: > 40 µM
IC50 [2]: 0.012 µM
IC50 [3]: 0.1 µM
IC50 [40]: 0.3 µM
IC50 (HeLa [41]): 0.2 µM
IC50 (Monocyte [42]): > 5 µM
IC50 [43]: 48 µM
Activity (HEK293 [44]): inactive
Activity (Homo sapiens [45]): inactive
IC50 [46]: 0.3 µM
Activity [47]: inactive
IC50 (HeLa [48]): 2.5 µM
Activity [49]: inactive
Activity (Homo sapiens [50]): inactive
IC50 [51]: > 100 µM
IC50 [52]: > 100 µM
